From patent EP2949324A1, “Prevention and/or treatment of ischemia/reperfusion injury” (Consorci Institut Catala de Ciencies Cardiovasculars, priority 2014, dated 2015)

Experiments:
[1] = tested on: canine cardiac ischemia model; settings: infused during reperfusion; cited from earlier work
[2] = molecular target: Na^+/H^+ exchange system (Homo sapiens, UniProt P19634); settings: recent clinical trial; cited from earlier work
[3] = cited from earlier work; for infarct size: given pre-ischemia
[4] = tested on: LDL; test: Resistance of LDL against copper induced in vitro oxidation and TBARS; type: in vivo, swine; settings: 3 week oral treatment; p<0.05
Experimental: (§1) Blood samples were collected at 2.5 h post-reperfusion and 3 weeks post-MI to evaluate lipoprotein resistance to oxidation. The inventors firstly assessed HDL-antioxidant activity by a method based on the ability of HDL to reverse oxidation of LDL. Results were expressed as the percentage of total oxidized LDL considering that control oxLDL is 100%. In addition, resistance of LDL against copper induced in vitro oxidation was also determined in EDTA-blood samples as previously described. The inventors also determined the lipid peroxide content of oxidized-LDL by assessing thiobarbituric-acid-reactive substances (TBARS).

[5] = tested on: pig model of closed-chest coronary balloon occlusion/reperfusion; test: Transthoracic echocardiography (LVEF, SF); type: in vivo, swine
Experimental: Transthoracic echocardiography assessment was performed in all animals before inducing ischemia (baseline), after 75 min of ischemia (prior β-OH-S infusion), 2.5 h post-reperfusion and 3 weeks post-MI using an echocardiographyc system Phillips iE33 equipped with a S5-1 Sector Array transducer. Left ventricle ejection fraction (LVEF) and shortening fraction (SF) were measured in the short-axis M-mode right parasternal projection in a plane below the mitral valves and perpendicular to the LV (left ventricle).

[6] = tested on: pig model of closed-chest coronary balloon occlusion/reperfusion; test: Myocardial lipotoxicity: oil red-O staining and lipid characterization (TLC) of scar and NIM; type: in vivo, swine; settings: 3 weeks post-MI
Experimental: (§2) To that end, serially cut 5 µm sections from OCT-embedded samples were stained for lipids (oil red-O, ORO) and interstitial collagen (Sirius Red). Images were captured with a Nikon eclipse 80i microscope and digitalized by a Retiga-1300i. Staining was calculated by a single blinded observer from an average of 5-fields/sample as content (%)=[positive stained area/(total tissue area- vascular luminal areas)]x100 using ImageJ®.

[7] = tested on: TβRII/Smad2/3 signaling pathway; test: Reparative fibrosis of the forming scar (TβRII/Smad2/3, myofibroblasts, collagen); type: in vivo, swine
Experimental: (§3) Transcriptomic analysis: It was analyzed by real-time PCR (Applied Biosystems) mRNA levels for: 1) apoptosis-related markers [extrinsic-(Fas Receptor/CD95 and caspase-8), intrinsic-(Bax, Bcl2, and P53) pathways and caspase-3]; 2) intracellular calcium handling receptors [sarcoendoplasmic reticulum Ca^2+ATPase 2 (SERCA2) and the ryanodine receptor (RyR2)]; and 3) fibrous tissue formation (collagen, Smad2 and Smad3). The threshold cycle values were determined and normalized to the housekeeping gene 18S rRNA.
(§4) Western Blot analysis: Protein levels of: 1) apoptosis markers (truncated-caspase-3); 2) cardioprotective kinases [PKC-ε and PKC-ε phosphorylated at Ser^729 (Santa Cruz) and Akt/PKB (Santa Cruz) and Akt phosphorylated at Ser^473 (Cell signaling)]; 3) total eNOS and eNOS phosphorilated at Ser^1177 (Cell Signaling); and 4) fibrosis [TGFP type II receptor (TPRII; Abcam) and phosphorylated-Smad2/3 (Ser^423/425; Santa Cruz)] were assessed.
as §2
In addition, myofibroblasts detection in the scar tissue was performed by double staining with mouse monoclonal vimentin (Dako) and rabbit polyclonal alpha-SMA 1:50 (Abeam). Alexa fluor 488 donkey anti-mouse and alexa fluor 546 goat anti-rabbit were used as secondary antibodies, respectively and Hoechst for nuclear staining. Images were captured by confocal microscopy (20x).

[8] = tested on: RhoA; test: RhoA in total and cytosolic-membrane fractions of cardiac tissue (immunoblotting); type: in vivo, swine; settings: for total amount of RhoA: myocardium, […] post-reperfusion and 3 weeks post-MI
Experimental: RhoA (Santa Cruz) was determined in total and cytosolic-membrane fractions of jeopardized cardiac tissue of all animals as previously described by Vilahur G 2009 (ad supra).

[9] = tested on: Akt/eNOS signaling pathway; test: Akt/eNOS signaling (Western blot) in myocardium and coronary arteries; type: in vivo, swine
Experimental: as §4
In addition, 3 weeks post-MI, the coronary arteries of all animals were isolated, cleaned of surrounding tissue and snap frozen for further analysis of coronary phosphorylated-eNOS protein expression.

[10] = tested on: PKCε; test: PKCε expression/activation in the forming scar (Western blot); type: in vivo, swine; settings: scar tissue, compared to placebo-control animals
Experimental: as §4

[11] = tested on: canine hepatic ischemia/reperfusion model; settings: given prior to reperfusion; cited from earlier work
[12] = tested on: pig model of closed-chest coronary balloon occlusion/reperfusion; test: Morphometric determination of infarct size (Evan's Blue / TTC); type: in vivo, swine; settings: single loading dose 0.3 mg/kg i.v. prior reperfusion; p<0.05
Experimental: This hyperlipidemic diet contains 24.82% proteins, 64.20% carbohydrates, 10.98% fats and 16,834.7 kJ. […] After this 10 day diet period animals underwent a closed-chest 90 min mid-left anterior descending (LAD) coronary balloon occlusion. […] At minute 90, the balloon was deflated to achieve coronary artery reperfusion. […] The incidence of reperfusion-related arrhythmias during the first 2.5 h upon balloon deflation was documented in all animals. Animals had continuous ECG and hemodynamic monitoring throughout all procedures. 2.5 h post-reperfusion Evan's Blue dye was injected in anesthetized animals through the left atrium to outline the area at risk (AAR) after which the hearts of the animals were arrested with potassium chloride and rapidly excised. Hearts were sectioned into 6 transverse slices parallel to the atrioventricular ring. Consecutive slices were alternatively collected for infarct size analysis (TTC; triphenyltetrazolium chloride staining) and molecular studies of the ischemic myocardium (IM) and non-ischemic myocardium (NIM).

[13] = tested on: pig model of closed-chest coronary balloon occlusion/reperfusion; test: Neutrophil detection in ischemic myocardium (anti-neutrophil elastase staining); type: in vivo, swine; settings: […] post-reperfusion, p<0.05
Experimental: (§5) Paraffin-embedded LAD and ischemic myocardial tissue of animals sacrificed 2.5 h post-reperfusion were cut into 5-µm-thick for 8-hydroxyguanosine staining (Abcam ab48508), a measurement indicative of oxidative stress-induced DNA-damage. In addition, optimal cutting temperature (OCT)-embedded ischemic myocardial tissue of animals sacrificed 2.5 h post-reperfusion was stained for neutrophils detection (anti-neutrophil elastase; Abcam). Staining was calculated by a single blinded observer from an average of 5-fields/animal as % of stained area. Images were captured by Nikon Eclipse 80i microscope and digitized by Retiga 1300i Fast camera.

[14] = tested on: pig model of closed-chest coronary balloon occlusion/reperfusion; test: Vascular/cardiac DNA-oxidative damage (8-hydroxyguanosine staining); type: in vivo, swine; settings: […] post-reperfusion
Experimental: as §5

[15] = tested on: oxLDL; test: HDL-antioxidant activity (ability of HDL to reverse oxidation of LDL); type: in vivo, swine; settings: HDL isolated […] post-reperfusion; p<0.05
Experimental: as §1

[16] = tested on: apoptosis-related markers; test: Apoptosis-related markers in ischemic myocardium (real-time PCR, Western blot, TUNEL); type: in vivo, swine
Experimental: (§6) Tissue samples obtained from the IM (2.5 h post-reperfusion)/scar (3 weeks post-MI) and NIM of all animals were pulverized and homogenized in Tripure® or lysis buffer for RNA and protein isolation, respectively.
as §3, §4
Isolated mitochondrial extracts were incubated against Bcl-2 phosphorylated at Ser^87.

[17] = tested on: mitochondria isolated from the ischemic myocardium; test: Mitochondrial membrane potential by flow cytometry (JC-1); type: in vivo, swine; settings: […] of reperfusion, p<0.05
Experimental: Mitochondria were isolated from the ischemic myocardium of pigs subjected to 2.5 h of reperfusion as previously reported (Boehm et al. 2001 Am J Physiol Heart Circ Physiol 280: H977-983). Mitochondrial membrane potential (Δψm) was measured by flow cytometry using the ratiometric dye 5,5',6,6'-tetrachloro-1,1',3,3'-tetraethylbenzimidazol carbocyanine iodide (JC-1; Molecular Probes). Values were expressed as red fluorescence activity. Isolated mitochondria treated with valinomycin (Sigma), which decreases Δψm, were used as control.

[18] = tested on: pig model of closed-chest coronary balloon occlusion/reperfusion; test: Reperfusion-related arrhythmias and hemodynamic monitoring; type: in vivo, swine
Experimental: This hyperlipidemic diet contains 24.82% proteins, 64.20% carbohydrates, 10.98% fats and 16,834.7 kJ. […] After this 10 day diet period animals underwent a closed-chest 90 min mid-left anterior descending (LAD) coronary balloon occlusion. […] At minute 90, the balloon was deflated to achieve coronary artery reperfusion. […] The incidence of reperfusion-related arrhythmias during the first 2.5 h upon balloon deflation was documented in all animals. Animals had continuous ECG and hemodynamic monitoring throughout all procedures.

[19] = tested on: RyR2; test: Real-time PCR of calcium handling receptor mRNA; type: in vivo, swine
Experimental: as §6, §3

[20] = tested on: SERCA2; test: Real-time PCR of calcium handling receptor mRNA; type: in vivo, swine
Experimental: as §6, §3

[21] = tested on: endothelin receptors; settings: cited from earlier work; for cardiac function and myocardial relaxation: at 1 h; for difference compared to placebo-treated animals: at 24 h
[22] = ischemic myocardium, […] post-reperfusion

Sequence of Na^+/H^+ exchange system (P19634 whole entry): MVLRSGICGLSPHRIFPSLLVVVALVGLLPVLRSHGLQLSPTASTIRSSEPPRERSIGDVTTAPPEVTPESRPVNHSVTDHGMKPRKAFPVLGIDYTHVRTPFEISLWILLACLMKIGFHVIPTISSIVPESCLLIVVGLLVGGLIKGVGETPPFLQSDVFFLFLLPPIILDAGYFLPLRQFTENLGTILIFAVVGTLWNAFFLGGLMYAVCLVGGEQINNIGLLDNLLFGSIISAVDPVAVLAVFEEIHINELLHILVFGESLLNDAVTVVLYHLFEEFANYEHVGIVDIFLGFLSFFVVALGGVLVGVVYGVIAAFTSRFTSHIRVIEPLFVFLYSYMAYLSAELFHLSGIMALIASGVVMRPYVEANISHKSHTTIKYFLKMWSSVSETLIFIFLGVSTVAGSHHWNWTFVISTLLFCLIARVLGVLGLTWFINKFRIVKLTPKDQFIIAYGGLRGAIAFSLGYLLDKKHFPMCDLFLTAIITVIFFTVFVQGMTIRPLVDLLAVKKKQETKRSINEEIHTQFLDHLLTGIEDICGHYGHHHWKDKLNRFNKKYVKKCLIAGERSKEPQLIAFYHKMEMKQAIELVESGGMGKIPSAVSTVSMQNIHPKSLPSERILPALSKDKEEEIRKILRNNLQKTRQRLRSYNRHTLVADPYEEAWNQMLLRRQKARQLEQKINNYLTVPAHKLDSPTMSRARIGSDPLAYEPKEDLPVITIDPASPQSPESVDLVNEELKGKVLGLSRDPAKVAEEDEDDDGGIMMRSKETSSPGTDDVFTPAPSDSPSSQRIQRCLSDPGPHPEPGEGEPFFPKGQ

## CCNC(=O)[C@H]1O[C@@H](n2cnc3c(N)nc(NCCc4ccc(CCC(=O)O)cc4)nc32)[C@H](O)[C@@H]1O [CGS-21680]
[1]
  Bax: downregulated
  Bcl-2 levels: upregulated
  neutrophil accumulation in the perinecrotic myocardium: reduced

## CC(C)c1ccc(C(=O)NC(=N)N)cc1S(C)(=O)=O [Cariporide]
[2]
  reperfusion injury (improved left ventricular (LV) dysfunction): attenuation of reperfusion injury

## CS(=O)(=O)O.Cc1cccc2c1cc(C(=O)N=C(N)N)n2C [SM-20550]
[3]; given post-ischemia
  effect on infarct size: beneficial
[3]
  infarct size: reduced infarct size in a dose-dependent manner

## CCC(C)(C)C(=O)O[C@H]1C[C@@H](C)C=C2C=C[C@H](C)[C@H](CC[C@@H]3C[C@@H](O)CC(=O)O3)[C@H]21 [Simvastatin, (1S,3R,7S,8S,8aR)-8-{2-[(2R,4R)-4-hydroxy-6-oxotetrahydro-2H-pyran-2-yl]ethyl}-3,7-dimethyl-1,2,3,7,8,8a hexahydronaphthalen-1-yl 2,2-dimethylbutanoate]
[4]
  decrease in TBARS levels as compared to the experimental day: 32%
  prolongation of the lag time as compared to control/placebo animals: 4 times
[5]; up to 3 weeks post-MI, oral simvastatin
  LVEF and SF improvement: persisted
[6]; different cardiac zones
  free-cholesterol content: No differences
[6]; forming scar
  less cholesteryl-ester accumulation as compared to placebo-controls: 50%
[7]; different cardiac regions, 3 weeks post-MI
  Smad3 mRNA levels: no changes
[7]; healing scar, compared to control animals and NIM
  collagen fibrils deposition: higher
[7]; healing scar, data not shown
  α-SMA/vimentin positive myofibroblasts: higher detection
[7]; scar area, 3 weeks post-MI
  Smad2/3 (downstream effector of TβRII): activation
  TβRII protein expression: marked and significant increase
[7]; scar tissue, 3 weeks post-MI
  Smad2 gene expression: significantly upregulated
[8]
  total amount of RhoA: unchanged
[8]; scar, after the 3-week oral treatment, p<0.001 vs control
  decrease of RhoA membrane translocation: persisted
[9]; coronary arteries at 3-weeks post-MI
  P-eNOS: enhanced
[9]; evolving scar up to 3 weeks post-AMI
  P-Akt/P-eNOS pathway activation: persisted
[10]
  PKCε expression and activation: enhanced both the expression and activation

## Nc1ncnc2c1ncn2[C@@H]1O[C@H](CO)[C@@H](O)[C@H]1O [adenosine, Adenosine]
[11]
  aspartate aminotransferase (AST) and alanine transaminase (ALT): attenuated the rise
  hepatic glutathione stores: restored
  neutrophil accumulation and superoxide radical production: inhibition

## O=C(NCCO[N+](=O)[O-])c1cccnc1 [nicorandil]
[3]
  infarct size: reduced infarct size in a dose-dependent manner

## CCC(C)(C)C(=O)OC1CC(C)C=C2C=CC(C)C(CCC(O)CC(O)CC(=O)O)C21 (stereo not drawn) [β-OH-S, β-hydroxy acid derivative of simvastatin]
[12]
  salvage of the LV-at-risk as compared to reperfusion alone: 40%
[13]
  attenuation of neutrophils infiltration as compared to vehicle/control: ~70%
[14]; coronary artery
  reperfusion-related oxidative DNA damage: absence of DNA oxidative damage
[14]; ischemic myocardial tissue
  reperfusion-related oxidative DNA damage: absence of DNA oxidative damage
[15]
  higher HDL antioxidant activity against LDL oxidation relative to controls: 25%
[16]; [22]
  mitochondrial Bcl-2 activation: diminished
  truncated caspase-3 expression: reduced
[16]; ischemic myocardium, compared to vehicle/control, data not shown
  apoptotic cell counts (TUNEL staining): low apoptotic cell counts
[16]; jeopardized myocardium, […] post-reperfusion
  upregulation of genes of death receptor- and mitochondrial-related apoptotic pathways: prevented the upregulation
[17]
  Δψm relative to vehicle/control: 2 times
[18]; first […] upon balloon deflation, 3 out of 12
  incidence of reperfusion-related ventricular arrhythmias: 25 % animals
[18]; throughout the study
  hemodynamic parameters (heart rate and mean blood pressure): not affected
[5]; […] after reperfusion
  LVEF improvement: 9.4%
  SF improvement: 6.0%
[19]; NIM
  RyR2 mRNA: 0.2±0.07 RyR2/18S rRNA
[19]; ischemic myocardium
  RyR2 mRNA: 0.14±0.03 RyR2/18S rRNA
[20]; NIM
  SERCA2 mRNA: 1.5±0.3 SERCA/18S rRNA
[20]; ischemic myocardium
  SERCA2 mRNA: 1.9±0.5 SERCA/18S rRNA
[8]; intravenous infusion, ischemic myocardium, […] post-reperfusion, p<0.001 vs control
  RhoA membrane translocation (activation), membrane-to-cytosol ratio: markedly decreased
[8]
  total amount of RhoA: unchanged
[9]; ischemic myocardium, acute administration
  P-Akt/P-eNOS pathway: activating

## BQ-123
[21]
  cardiac function and myocardial relaxation: significantly better
  difference compared to placebo-treated animals: no longer evident

## BQ-788
[21]
  cardiac function and myocardial relaxation: significantly better
  difference compared to placebo-treated animals: no longer evident
